{"source": "patent US20170112857A1", "about": "“Extended Release Aspirin” (New Haven Pharmaceuticals, Inc., priority 2015, published 2017)", "key": {"Interleukin-8 (IL-8)": {"test_system": "Interleukin-8 (IL-8)", "experiment": "Bradykinin-stimulated Interleukin-8 serum levels (Example 4)", "assay_type": "in vivo, human", "procedure": "Subjects of Group 1 were randomly administered a placebo, 81 mg IR ASA and 162.5 mg IR ASA. Subjects of Group 2 were randomly administered a placebo, 81 mg ER ASA and 162.5 mg ER ASA (Durlaza®). Each subject was prohibited from taking any aspirin for two weeks prior to being administered the randomly chosen drug daily for 1 week followed by a urine collection 24 hours after dosing. This protocol was repeated two additional times. For each urine collection TxB2 and 2, 3-dinor-6-keto-PGF1α (“prostacyclin”) levels were measured using gas chromatography-mass spectrometry (“GC/MS”). Statistical analysis was done using Wilcoxon rank sum test for continuous variables and the Pearson test for categorical variables.\nInterleukin-8 (“IL-8”) serum levels (and Interleukin-6 levels, not shown) were measured both prior to and after administration of 0, 81 or 162.5 mg of either IR ASA or ER ASA."}, "platelet function": {"test_system": "platelet function", "experiment": "PlateletWorks platelet function at trough level", "assay_type": "in vivo, human", "details": "Visit 2 trough", "procedure": "The platelet function and aggregation measures at trough level were compared between the 81 mg immediate release ASA, 162.5 mg ER ASA (Durlaza®) and 325 mg ER ASA groups. For this study the trough level data are from the following timepoints: (1) for 81 mg—the data at Visit 2; (2) for 162.5 mg ER ASA (Durlaza®)—the data at Visit 3 pre-dose; and (3) for 325 mg ER ASA—the data at Visit 6 pre-dose.\nThis is unknown for patients with Diabetes and CVD or multiple risk factors."}, "endothelial function": {"test_system": "endothelial function", "experiment": "Reactive hyperemia index (ENDOPAT pulsatile arterial tonometry)", "assay_type": "in vivo, human", "details": "for RHI < 1.67 (%): share of subjects", "procedure": "Endothelial function was assessed using the ENDOPAT system ([…] Medical, Israel), a pulsatile arterial tonometry-based diagnostic device, at Visit 2, Visit 3, Visit 5, and Visit 6 predose. The reactive hyperemia index (“RHI”), a measure of endothelial function, and the augmentation index (“AI”), a measure of arterial stiffness, were determined. Endothelial dysfunction is defined as RHI<1.67. Normal arterial stiffness is defined as an AI -30% to -10%, increased arterial stiffness as an AI>-10% to 10%, and abnormal arterial stiffness as an AI>10%. The RHI measures vessel pliability which is a surrogate for nitric oxide production. The production of nitric oxide inhibits platelet aggregation. Thus, determining nitric oxide production following Durlaza® dosing is important to understanding its affect on platelet inhibition."}, "platelet aggregation [1]": {"test_system": "platelet aggregation", "experiment": "Multiplate platelet aggregation", "assay_type": "in vivo, human", "details": "Visit 2 trough", "procedure": "The main study consisted of a run-in phase where subjects were administered 81 mg, everyday (“QD”), of immediate release acetylsalicylic acid (“IR ASA”) for 7-28 days. […] During Visits 2 and 5 subjects were subjected to the following tests: (1) platelet aggregation measurements (a) AA induced, (b) collagen induced, and (c) Multiplate®; […] During Visits 3 and 6 subjects were subjected to the following tests: (1) platelet aggregation measurements (a) AA induced, (b) collagen induced, and (c) Multiplate®; […] For this study the trough level data are from the following timepoints: (1) for 81 mg—the data at Visit 2; […]"}, "platelet aggregation [2]": {"test_system": "platelet aggregation", "details": "75 mg IR ASA; Würtz et al.; cited from earlier work"}, "TxB2": {"test_system": "TxB2", "experiment": "Urinary TxB2 excretion by GC/MS, basal and bradykinin-stimulated (Example 3)", "assay_type": "in vivo, human", "details": "for Basal urinary TxB2 levels over placebo: 24 hours post-dosing; for Bradykinin-stimulated TxB2 levels over placebo: 4 hours post-dosing", "source_text": "[…] This protocol was repeated two additional times. […] Statistical analysis was done using Wilcoxon rank sum test for continuous variables and the Pearson test for categorical variables."}, "[3]": {"details": "81 mg IR, subjects compared with Visit 6 (sub-study)"}, "[4]": {"details": "HPT Group, Visit 5, 81 mg IR ASA"}}}
{"smiles": "CC(=O)Oc1ccccc1C(=O)O", "note": "[IR ASA, acetylsalicylic acid]", "values": [{"measurement": "Bradykinin-stimulated IL-8 levels", "setting": "Interleukin-8 (IL-8); 81 mg", "value": "increased"}, {"measurement": "Bradykinin-stimulated IL-8 levels", "setting": "Interleukin-8 (IL-8); 162.5 mg", "value": "increased"}, {"measurement": "PlateletWorks (% Agg) AA", "setting": "platelet function; 81 mg IR QD, main study", "value": "44 ± 19", "unit": "% Agg"}, {"measurement": "PlateletWorks (% Agg) ADP", "setting": "platelet function; 81 mg IR QD, main study", "value": "83 ± 15", "unit": "% Agg"}, {"measurement": "PlateletWorks (% Agg) Collagen", "setting": "platelet function; 81 mg IR QD, main study", "value": "47 ± 17", "unit": "% Agg"}, {"measurement": "PlateletWorks (% Agg) AA", "setting": "platelet function; [3]", "value": "44 ± 16", "unit": "% Agg"}, {"measurement": "PlateletWorks (% Agg) ADP", "setting": "platelet function; [3]", "value": "84 ± 10", "unit": "% Agg"}, {"measurement": "PlateletWorks (% Agg) Collagen", "setting": "platelet function; [3]", "value": "44 ± 12", "unit": "% Agg"}, {"measurement": "Reactive Hyperemia Index, Maximum", "setting": "endothelial function; [4]", "value": 2.27}, {"measurement": "Reactive Hyperemia Index, Mean", "setting": "endothelial function; [4]", "value": 1.74}, {"measurement": "Reactive Hyperemia Index, Minimum", "setting": "endothelial function; [4]", "value": 1.23}, {"measurement": "Reactive Hyperemia Index, Mean", "setting": "endothelial function; HPT Group, Visit 5, 81 mg IR ASA, listed as IR aspirin", "value": "1.7±0.5"}, {"measurement": "RHI < 1.67 (%)", "setting": "endothelial function; [4]", "value": "(44) %"}, {"measurement": "Reactive Hyperemia Index, Maximum", "setting": "endothelial function; Visit 2, 81 mg IR ASA", "value": 3.01}, {"measurement": "Reactive Hyperemia Index, Mean", "setting": "endothelial function; Visit 2, 81 mg IR ASA", "value": 1.94}, {"measurement": "Reactive Hyperemia Index, Minimum", "setting": "endothelial function; Visit 2, 81 mg IR ASA", "value": 0.58}, {"measurement": "Reactive Hyperemia Index, Mean", "setting": "endothelial function; Visit 2, 81 mg IR ASA, listed as IR aspirin", "value": "1.9±0.5"}, {"measurement": "RHI < 1.67 (%)", "setting": "endothelial function; Visit 2, 81 mg IR ASA", "value": "(27.5) %"}, {"measurement": "MultiPlate (AU) AA", "setting": "platelet aggregation [1]; 81 mg IR QD, main study", "value": "17 ± 14", "unit": "AU"}, {"measurement": "MultiPlate (AU) ADP", "setting": "platelet aggregation [1]; 81 mg IR QD, main study", "value": "70 ± 24", "unit": "AU"}, {"measurement": "MultiPlate (AU) Collagen", "setting": "platelet aggregation [1]; 81 mg IR QD, main study", "value": "36 ± 17", "unit": "AU"}, {"measurement": "MultiPlate (AU) AA", "setting": "platelet aggregation [1]; [3]", "value": "24 ± 13", "unit": "AU"}, {"measurement": "MultiPlate (AU) ADP", "setting": "platelet aggregation [1]; [3]", "value": "77 ± 15", "unit": "AU"}, {"measurement": "MultiPlate (AU) Collagen", "setting": "platelet aggregation [1]; [3]", "value": "47 ± 18", "unit": "AU"}, {"measurement": "AA induced and collagen induced platelet aggregation 24 hours after administration", "setting": "platelet aggregation [2]", "value": "significant increase"}, {"measurement": "Basal urinary TxB2 levels over placebo", "setting": "TxB2; 81 mg daily for 1 week", "value": "significantly reduced"}, {"measurement": "dose dependence of the effect on TxB2 synthesis", "setting": "TxB2; 81 mg vs 162.5 mg", "value": "not seen"}, {"measurement": "Bradykinin-stimulated TxB2 levels over placebo", "setting": "TxB2; 81 mg", "value": "significantly reduced"}, {"measurement": "Basal urinary TxB2 levels over placebo", "setting": "TxB2; 162.5 mg daily for 1 week", "value": "significantly reduced"}, {"measurement": "Bradykinin-stimulated TxB2 levels over placebo", "setting": "TxB2; 162.5 mg", "value": "significantly reduced"}, {"measurement": "selectivity for basal TxB2 production over prostacyclin production", "setting": "TxB2; doses of 81 and 162.5 mg/d", "value": "selectively inhibit basal TxB2 production over prostacyclin production"}]}
